Experimental data: patent US8598368B2, “Stable neutral nitric oxide source” (priority 2007, dated 2013)

Legend:
[1] = Stability of the Diels-Alder adduct and its hydrogenated derivative (observation); assay type: physicochemical; conditions: white solid precipitated at 0° C., then warmed
Procedure: At 0° C., a white solid, presumed to be 2, precipitated from solution. […] To confirm the identity of 2, hydrogenation produced stable compound 3 as described below.

[2] = Treatment of patient with chronic hypertension; assay type: in vivo; conditions: intravenous, blood concentration of 10 nanomolar
Description: A person being treated with sodium iodide for hyperthyroidism has chronic hypertension (BP of 165/90). The patient is given 4 intravenously to maintain a blood concentration of 10 nanomolar. Blood pressure reduces to 140/85.
Treatment of patient with chronic hypertension with 6 The patient who has chronic hypertension (BP of 165/90) is given 6 intravenously to maintain a blood concentration of 10 nanomolar. Blood pressure reduces to 140/85.

Row | SMILES | Stability (retro Diels Alder reaction) [1] | also measured
1 | N#CC1(N2OC3C=CC2C3)CCCCC1 (stereo not shown) [Compound 2] | On warming, the solid turned blue, suggesting retro Diels Alder reaction | –
2 | N#CC1(N2OC3CC2C(Br)C3Br)CCCCC1 (stereo not shown) [Compound 4, N-(1-cyanocyclohexyl)bicyclo[2.2.1]4,5-dibromo-3,6-dihydro-1,2-oxazine] | – | Blood pressure ([2]; person treated with sodium iodide, chronic hypertension (BP of 165/90)): 140/85
3 | N#CC1(N2OC3CC2C(S)C3O)CCCCC1 (stereo not shown) [Compound 6, N-(1-Cyanocyclohexyl)bicyclo[2.2.1]4-thio-5-hydroxy-3,6-dihydro-1,2-oxazine] | – | Blood pressure ([2]; patient with chronic hypertension (BP of 165/90)): 140/85
4 | N#CC1(N2OC3CCC2C3)CCCCC1 (stereo not shown) [Compound 3, N-(−1-cyanocyclohexyl)bicyclo[2.2.1]3,4,5,6-tetrahydro-1,2-oxazine] | stable | –
